These results are taken from US20050034189A1, “Chitin oligosaccharide elicitor- and gibberellin-responsive genes in plants, and uses thereof” (National Institute of Agrobiological Sciences, priority 2001, published 2005).

One test concerns nine plant bioassays. The following applies: cited from earlier work.
Test [1] relates to CIGR1 gene and CIGR2 gene. The test can be described thus: Gibberellin responsiveness of CIGR1 and CIGR2 genes in suspension-cultured rice cells, Northern blot hybridization. In kind it is cell-based, rice (Oryza sativa cv. Nipponbare). The following applies: for induction of CIGR1 and CIGR2 gene expression by gibberellin species: ten-minute treatment of cultured rice cells. How it is done: (§1) (1) Cultured rice cells: The cultured cells of rice were induced from germinating rice seeds (Oryza sativa cv. Nipponbare) on a N6 agar plate containing 1 ppm 2,4-D (auxin; 2,4-dichlorophenoxyacetic acid). The cells were successively cultured in liquid N6 medium as follows. Once a week, cells of about 1 ml in volume were transferred to 150 ml N6 medium. Every two weeks, sizes of the clusters of cells were reduced by passing through a 20-mesh metallic mesh. Unfiltered cells that were cultured while shaking for four to six days after transferring to a 30-ml medium, were used for Northern blotting's RNA extraction.
(§2) (2) RNA extraction: The extraction of total RNA from cultured cells and green leaves of rice was carried out following the phenol-SDS method. A Polytron homogenizer was used to homogenize tissue in the presence of phenol (about 90% saturated with water) of about tenfold or more volume to the tissue volume, and the same volume of extraction buffer solution (50 mM Tris-HCl pH 9.0, 1% SDS, 50 mM NaCl). The aqueous phase obtained by centrifugation was repeatedly extracted with phenol. The total nucleic acid was precipitated by adding 0.6 volume of isopropanol to the extract and then stirring the mixture. After dissolving the precipitate in water, 0.25 volume of 10 M LiCl was added, and the mixture was cooled on ice. High molecular weight RNA was collected by centrifugation, washed with 70% ethanol, and then dissolved in a small volume of water to be used as an RNA sample.
(3) A method for gibberellin treatment of cultured cells and green leaves: The cultured cells were pre-washed with 2,4-D-free N6 medium several times, and then suspended in the same medium and shaken for two hours at 25° C. Gibberellin (GA3 dissolved in ethanol) was added to make the respective final concentrations and the cells were cultured while shaking for a predetermined time and used for RNA extraction. Nipponbare plants, grown three weeks after seeding, were sprayed with gibberellin. The third and fourth leaves were collected at certain intervals and total RNA was extracted. Elicitor treatment was carried out by directly adding aqueous elicitor solutions to cultured cells of rice.
(4) Hybridization: RNA for the Northern hybridization was denatured by the glyoxal method. 2.7 μl of glyoxal (final concentration, 1 M), 1.6 μl of sodium phosphate (pH 7.0, final concentration, 10 mM), and 8 μl of dimethylsulfoxide (final concentration, 50%) were added to 10 μg of total RNA (3.7 μl). The mixture was kept at 50° C. for one hour and then subjected to electrophoresis in 1.4% agarose (10 mM sodium phosphate, pH 7.0). After electrophoresis, RNA was blotted onto a nylon membrane (Biodyne A) and RNA was fixed onto the membrane by treatment at 80° C. for two hours. Hybridization was carried out in a mixture of 50% formamide, 0.1% SDS, 0.1 mg/ml salmon sperm DNA, 5×SSPE (0.9 M NaCl, 50 mM sodium phosphate, 5 mM EDTA, pH 7.4), and 5× Denhardt's solution (0.1% bovine serum albumin, 0.1% Ficoll, 0.1% polyvinylpyrrolidone) at 42° C. for one day. The membrane was then washed with 0.1×SSC (15 mM NaCl, 1.5 mM sodium citrate) three times for five minutes each at room temperature and twice for 30 minutes each at 65° C. and then exposed on X-ray film.
Therefore, the present inventors examined the gibberellin responsiveness of CIGR1 and CIGR2 genes. Suspension-cultured cells were treated with GA3, which is one of the active-type gibberellins, and changes in the expression of these two genes were analyzed over time. […] To maintain cell division activity, the medium used for culturing plant cells contained 2,4-D, which is one of auxins that are not easily metabolized by plants. It was thought that 2,4-D might suppress the action of gibberellin. Therefore, the cells were pre-washed with 2,4-D-free medium, and after two hours of pre-culture in the same medium, the cells were treated with GA3. […]

The subject of test [2] is CIGR1 gene and CIGR2 gene. The test can be described thus: Expression of CIGR1 and CIGR2 genes in green leaves of rice after GA3 spraying. The following applies: GA3 50 μM sprayed; third and fourth leaves, three weeks after seeding. Type of test: in vivo, rice (Nipponbare). The method, then:
FIG. 10 depicts photographs representing the expression of CIGR1 gene and CIGR2 gene in green leaves of rice after GA3 treatment. After spraying rice plants with GA3, the third and fourth leaves were sampled at certain intervals. Total RNA extracted from the third and fourth leaves was analyzed by the Northern blot hybridization method.
as §2, with “sample. […]” for “sample.”
Cultured plant cells are thought to be in an undifferentiated state in the presence of auxins. […] Thus, the responses of these two genes to gibberellin were analyzed in green leaves of rice. […]

The subject of another test is CHRC. The following applies: cited from earlier work.
For test [3], the system named is CIGR1 gene and CIGR2 gene. The test can be described thus: Effect of inhibitors on induction of CIGR1 and CIGR2 genes by chitin heptamer in cultured rice cells. In kind it is cell-based. The note with it: inhibitor added ten minutes before; okadaic acid 1 μM, lavendustin A 30 μM, K-252a 20 μM. The method, then: (§3) FIG. 11 depicts photographs representing the effects of protein kinase inhibitors on elicitor response and gibberellin response. The following compounds were added ten minutes before the treatment with chitin heptamer (GN7) or gibberellin (GA3). (A): the positive control of the elicitor response; (B): okadaic acid (1 μM); (C), lavendustin A (30 μM); (D), K-252a (20 μM).
(§4) In addition, the effects of various inhibitors on the inductions by gibberellin and elicitors of CIGR1 gene and CIGR2 gene in the cultured rice cells were examined. Referring to the results of Kuo et al., cells pretreated with okadaic acid were tested. […] From these observations, protein phosphatase was presumed to be involved in signal transduction from gibberellin to CIGR1 gene and CIGR2 gene in cultured rice cells. Following these experiments, the effects of protein kinase inhibitors were studied.

Test [4] has as its system CIGR1 gene and CIGR2 gene. The test can be described thus: Effect of inhibitors on induction of CIGR1 and CIGR2 genes by GA3 in cultured rice cells. Type of test: cell-based. The note with it: inhibitor added ten minutes before; okadaic acid 1 μM, lavendustin A 30 μM, K-252a 20 μM. How it is done:
as §3, §4

A further test concerns rice. The note with it: reported; cited from earlier work.
Test [5] has as its system CIGR1 gene and CIGR2 gene. Nature of the test: Elicitor responsiveness of CIGR1 and CIGR2 genes in cultured rice cells, Northern blot hybridization. Type of test: cell-based, rice (Oryza sativa cv. Nipponbare). How it is done:
as §1, §2
(3) A method for gibberellin treatment of cultured cells and green leaves: The cultured cells were pre-washed with 2,4-D-free N6 medium several times, and then suspended in the same medium and shaken for two hours at 25° C. […]
Both CIGR1 gene and CIGR2 gene were identified as elicitor responsive genes using DNA microarray analysis. The elicitor responsiveness of these two genes was analyzed using Northern blot hybridization method. […]

The subject of test [6] is PR1, PR10 and OsDRF1 genes. Nature of the test: Induction of PR1, PR10 and OsDRF1 genes after DEX treatment of transformed rice, oligoarray and Northern. Type of test: in vivo, rice (Nipponbare). The following applies: transformed line #7; DEX 30 μM spray. How it is done: FIG. 12 depicts photographs representing the occurrence of expression induction of PR1, PR10 and OsDRF1 genes on induction of CIGR2 gene expression by DEX using a DEX-inducing type promoter. Transformed rice plants #7 and #9 were spray-treated with DEX or ethanol (EtOH; 0.1% v/v). The amounts of mRNA for each gene were measured using northern blot hybridization after zero, 24, 48 and 72 hours.
Using Agrobacterium methods, the plasmid was introduced into rice (Nipponbare). The derived transformed rice was inbred, and second generation seeds were obtained. Each independent line was spray-treated with dexamethasone (DEX; 30 μM, ethanol solution). Over a time course, total RNAs were extracted by phenol methods from the above ground part of the plant. Northern hybridization was carried out using the cDNA of ^32P-labeled CIGR2 as a probe. […] This line was analyzed using a 60mer oligoarray (Agilent) constructed from a total-length rice cDNA library. As a result, induction of three genes (PR1(AK107926), PR10, and OsDRF1 (Defense Response Gene Family 1; AK100816)) was discovered 48-72 hours after dexamethasone treatment. PR1 and PR10 are known to be involved in disease resistance. […]

A further test relates to α-amylase. The note with it: aleurone layer of wheat; cited from earlier work.
The mark [7] stands for this setting: ten-minute GA3 treatment, 2,4-D-free medium.

For the compound `C=C1C[C@]23C[C@@]1(O)CC[C@H]2[C@@]12CC[C@H](O)[C@@](C)(C(=O)O1)[C@H]2[C@@H]3C(=O)O` [GA1], the “physiological activity type of gibberellin” value (“physiological activity type” below) in the test with nine plant bioassays is on record as “active type”. In addition, the “induction of CIGR1 and CIGR2 gene expression by gibberellin species” value (“induction … by gibberellin species” for short) in [1] is “induced the expression of both genes”.

As to `C=C1C[C@]23C[C@@]1(O)CC[C@H]2[C@@]12C=C[C@H](O)[C@@](C)(C(=O)O1)[C@H]2[C@@H]3C(=O)O` [GA3], the “expression of both genes in green leaves after GA3 spraying” value in test [2] was “very rapid transient expression with a maximum at 30 minutes after spraying”. Besides, the “GA3 concentration required for induction of CHRC by gibberellin” value with CHRC (chromoplasts of cucumber petals) was “at least 10^−7 M”. Besides, the “GA3 concentration up to which CHRC expression level increased approximately linearly” value in the test on CHRC (cucumber petals) is “up to 10^−4 M”. Besides, the “physiological activity type” value with nine plant bioassays is “active type”. Besides, in test [1] (cells pre-washed and pre-cultured two hours in 2,4-D-free medium), the “expression after GA3 treatment” value is on record as “Transient expression with a maximum at ten minutes after treatment”. Moreover, the “change in the amount of expression after GA3 treatment” value in [1] (medium containing 2,4-D, up to three hours after treatment, both genes) is listed as “no significant change”. Moreover, in test [1] (setting [7]), the “GA3 concentration at which induction of expression of both genes began to appear” value is 10^−6 M and the “GA3 concentration at which induction reached near saturation” value is listed as ~10^−4 M. Besides, the “induction … by gibberellin species” value in test [1] is “induced the expression of both genes”.

Take `C=C1C[C@]23C[C@H]1CC[C@H]2[C@@]12CC[C@H](O)[C@@](C)(C(=O)O1)[C@H]2[C@@H]3C(=O)O` [GA4]: the “physiological activity type” value with nine plant bioassays is “active type”. In addition, in test [1], the “induction … by gibberellin species” value is reported as “induced the expression of both genes”.

Consider `C=C1C[C@]23C[C@H]1CC[C@H]2[C@]1(C(=O)O)CC[C@H](O)[C@@](C)(C(=O)O)[C@H]1[C@@H]3C(=O)O` [GA13], for which the “physiological activity type” value with nine plant bioassays was “inactive type”. The “induction … by gibberellin species” value in [1] is “only active type gibberellins induced the expression”.

For the compound `C=C1C[C@]23C[C@@]1(O)CC[C@H]2[C@]1(C(=O)O)CCC[C@@](C)(C(=O)O)[C@H]1[C@@H]3C(=O)O` [GA17], the “physiological activity type” value in the test with nine plant bioassays was “inactive type”. The “induction … by gibberellin species” value in test [1] is reported as “only active type gibberellins induced the expression”.

Consider `O=C(O)c1cc(N(Cc2ccccc2O)Cc2cc(O)ccc2O)ccc1O` [Lavendustin A], for which, in test [3], the “inhibition of induction of both genes by chitin heptamer” value is given as “hardly inhibited”. Also, the “inhibition of induction of both genes by GA3” value in test [4] was “almost completely”.

Regarding `CC(=O)N[C@H]1[C@H](O[C@@H]([C@H](O)[C@H](C=O)NC(C)=O)[C@H](O)CO)O[C@H](CO)[C@@H](O[C@@H]2O[C@H](CO)[C@@H](O[C@@H]3O[C@H](CO)[C@@H](O[C@@H]4O[C@H](CO)[C@@H](O[C@@H]5O[C@H](CO)[C@@H](O[C@@H]6O[C@H](CO)[C@@H](O)[C@H](O)[C@H]6NC(C)=O)[C@H](O)[C@H]5NC(C)=O)[C@H](O)[C@H]4NC(C)=O)[C@H](O)[C@H]3NC(C)=O)[C@H](O)[C@H]2NC(C)=O)[C@@H]1O` [chitin heptamer, N-acetylchitoheptaose], the “elicitor activity in rice depending on oligomer size” value with rice is given as “strongest effects”. The “response (induction of expression) of both genes to chitin oligomers (monomer to heptamer) and chitosan oligomers (tetramer, heptamer)” value in test [5] is “strongest response”. Further, in [5] (both genes), the “time for which expression continued to increase after chitin heptamer treatment” value is “up to 90 minutes”. In addition, the “mRNA amount of CIGR1 and CIGR2 genes after treatment with chitin heptamer” value in test [5] (five minutes after treatment, both genes) was “Significant increases of mRNA amount”.

For the compound `C[C@@H]1C[C@H]2[C@@H]3CCC4=CC(=O)C=C[C@]4(C)[C@@]3(F)[C@@H](O)C[C@]2(C)[C@@]1(O)C(=O)CO` [dexamethasone], the “time after dexamethasone treatment at which induction of PR1, PR10 and OsDRF1 was discovered” value in test [6] was in the range of 48 to 72 h.

On to `C=C1[C@@H](O)[C@@H]2O[C@]3(CC[C@H](/C=C/[C@@H](C)[C@@H]4CC(C)=C[C@@]5(O[C@H](C[C@@](C)(O)C(=O)O)CC[C@H]5O)O4)O3)CC[C@H]2O[C@@H]1[C@@H](O)C[C@H](C)[C@H]1O[C@@]2(CCCCO2)CC[C@H]1C` [okadaic acid], for which, in test [3], the “inhibition of induction of both genes by chitin heptamer” value is listed as “hardly inhibited”. Also, the “inhibition of gibberellin induction of α-amylase” value in the test on α-amylase was “specifically inhibited”. Also, the “inhibition of induction of both genes by GA3” value in test [4] is “inhibited almost completely”.
